# Results from US9421209B2, “Kinase modulators” (Rhizen Pharmaceuticals SA, priority 2009, dated 2016).
# Where two headings read alike, the source gives them in different places.
# How the values were obtained:
# P110α = P110α (Homo sapiens, UniProt P42336); assay: Fluorescent (HTRF) determination of PI3K enzyme activity, α isoform; type: biochemical
# Source text: (§1) Assay 1: Fluorescent determination of PI3Kinase Kinase enzyme activity
# (§2) Phosphoinositide 3 kinases (PI3K) belong to a class of lipid kinases that play a critical role in the regulation of several key cellular processes. The PI3K are capable of phosphorylating the 3-hydroxy position of phosphoinositols thereby generating second messengers involved in downstream signalling events. The homogenous time resolved fluorescence (HTRF) assay allows detection of 3,4,5-triphosphate (PIP3) formed as a result of phosphorylation of phosphotidylinositol 4,5-biphosphate (PIP2) by PI3K isoforms such as α, β, γ or δ.
# (§3) PI3K isoform activity for α, β, γ or δ was determined using a PI3K human HTRF™ Assay Kit (Millipore, Billerica, Mass.) with modifications. All incubations were carried out at room temperature. Briefly, 0.5 μl of 40× inhibitor (in 100% DMSO) or 100% DMSO were added to each well of a 384-well black plate (Greiner Bio-One, Monroe, N.C.) containing 14.5 μl 1× reaction buffer/PIP2 (10 mM MgCl2, 5 mM DTT, 1.38 μM PIP2) mix with or without enzyme and incubated for 10 min. After the initial incubation, 5 μl/well of 400 μM ATP was added and incubated for an additional 30 minutes. Reaction was terminated by adding 5 μl/well stop solution (Millipore, Billerica, Mass.). Five microliters of detection mix (Millipore, Billerica, Mass.) were then added to each well and was incubated for 6-18 h in the dark. HRTF ratio was measured on a microplate reader (BMG Labtech., Germany) at an excitation wavelength of 337 nm and emission wavelengths of 665 and 620 nm with an integration time of […]. Data were analyzed using Graphpad Prism (Graphpad software; San Diego Calif.) for IC50 determination. Percent inhibition was calculated based on the values for the blank and enzyme controls. The results are provided below in Table 2 & 3.
# P110 δ/Pi3K δ = P110 δ/Pi3K δ (Homo sapiens, UniProt O00329); assay: Fluorescent (HTRF) determination of PI3K enzyme activity, δ isoform; type: biochemical; set-up: inhibition: dose or concentration left out as unconfirmed
# P110 δ/Pi3K δ, sequence (O00329 whole entry, canonical isoform): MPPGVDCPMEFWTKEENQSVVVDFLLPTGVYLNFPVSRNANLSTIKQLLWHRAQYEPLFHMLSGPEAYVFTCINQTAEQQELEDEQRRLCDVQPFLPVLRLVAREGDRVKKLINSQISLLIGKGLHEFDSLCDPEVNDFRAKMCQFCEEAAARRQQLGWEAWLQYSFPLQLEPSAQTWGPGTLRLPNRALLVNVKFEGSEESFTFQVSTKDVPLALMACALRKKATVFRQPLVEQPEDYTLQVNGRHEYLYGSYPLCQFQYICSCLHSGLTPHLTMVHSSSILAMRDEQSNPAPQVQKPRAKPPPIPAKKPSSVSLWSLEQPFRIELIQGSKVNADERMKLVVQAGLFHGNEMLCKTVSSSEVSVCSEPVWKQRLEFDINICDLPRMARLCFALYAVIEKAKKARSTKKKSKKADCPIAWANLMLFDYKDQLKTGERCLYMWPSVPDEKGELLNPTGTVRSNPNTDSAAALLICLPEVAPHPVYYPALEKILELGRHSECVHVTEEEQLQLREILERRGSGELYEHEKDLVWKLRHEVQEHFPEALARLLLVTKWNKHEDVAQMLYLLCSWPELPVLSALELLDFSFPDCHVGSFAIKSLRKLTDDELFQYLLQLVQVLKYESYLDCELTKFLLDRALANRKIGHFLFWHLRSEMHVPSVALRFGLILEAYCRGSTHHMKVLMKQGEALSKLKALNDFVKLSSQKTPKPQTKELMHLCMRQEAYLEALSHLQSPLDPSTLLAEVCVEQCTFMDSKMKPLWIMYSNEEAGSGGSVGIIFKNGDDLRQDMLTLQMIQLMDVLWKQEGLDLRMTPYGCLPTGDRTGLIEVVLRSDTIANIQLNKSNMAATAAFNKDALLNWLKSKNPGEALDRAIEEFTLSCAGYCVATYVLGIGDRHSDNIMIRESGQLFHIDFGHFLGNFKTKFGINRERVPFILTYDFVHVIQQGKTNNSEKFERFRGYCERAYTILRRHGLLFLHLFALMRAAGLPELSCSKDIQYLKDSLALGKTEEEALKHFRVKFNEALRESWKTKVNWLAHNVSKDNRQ
# P110 δ/Pi3K δ, sequence (P27986 whole entry partner, canonical isoform): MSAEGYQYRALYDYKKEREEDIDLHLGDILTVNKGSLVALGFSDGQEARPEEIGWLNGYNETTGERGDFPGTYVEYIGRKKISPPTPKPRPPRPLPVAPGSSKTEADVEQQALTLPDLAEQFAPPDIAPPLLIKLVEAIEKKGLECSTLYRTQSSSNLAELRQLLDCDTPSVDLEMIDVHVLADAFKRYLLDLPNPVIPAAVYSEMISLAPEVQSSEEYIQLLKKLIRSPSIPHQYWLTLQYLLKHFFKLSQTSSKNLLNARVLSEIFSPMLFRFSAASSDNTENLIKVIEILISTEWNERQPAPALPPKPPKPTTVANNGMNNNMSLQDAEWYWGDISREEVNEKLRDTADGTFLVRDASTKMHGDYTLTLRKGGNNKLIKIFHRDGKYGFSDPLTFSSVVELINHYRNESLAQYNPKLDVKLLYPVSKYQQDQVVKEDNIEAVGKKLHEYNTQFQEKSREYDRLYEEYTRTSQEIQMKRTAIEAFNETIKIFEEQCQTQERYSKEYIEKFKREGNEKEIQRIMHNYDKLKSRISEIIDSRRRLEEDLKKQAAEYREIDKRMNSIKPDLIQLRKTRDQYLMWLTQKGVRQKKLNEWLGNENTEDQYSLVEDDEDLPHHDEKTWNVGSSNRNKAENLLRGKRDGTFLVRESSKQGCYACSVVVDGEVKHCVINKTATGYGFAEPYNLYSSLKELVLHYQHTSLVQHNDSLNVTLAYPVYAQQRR
# In short: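 IC50 fitted from percent inhibition relative to blank and enzyme-only wells. Human PI3Kδ converts PIP2 to PIP3 after addition of 400 μM ATP solution, 30 min at room temperature. Product read by time-resolved FRET after stop and 6–18 h dark incubation with detection reagents.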
# P110γ = P110γ (Homo sapiens, UniProt P48736); assay: Fluorescent (HTRF) determination of PI3K enzyme activity, γ isoform; type: biochemical
# P110γ, sequence (P48736 whole entry, canonical isoform): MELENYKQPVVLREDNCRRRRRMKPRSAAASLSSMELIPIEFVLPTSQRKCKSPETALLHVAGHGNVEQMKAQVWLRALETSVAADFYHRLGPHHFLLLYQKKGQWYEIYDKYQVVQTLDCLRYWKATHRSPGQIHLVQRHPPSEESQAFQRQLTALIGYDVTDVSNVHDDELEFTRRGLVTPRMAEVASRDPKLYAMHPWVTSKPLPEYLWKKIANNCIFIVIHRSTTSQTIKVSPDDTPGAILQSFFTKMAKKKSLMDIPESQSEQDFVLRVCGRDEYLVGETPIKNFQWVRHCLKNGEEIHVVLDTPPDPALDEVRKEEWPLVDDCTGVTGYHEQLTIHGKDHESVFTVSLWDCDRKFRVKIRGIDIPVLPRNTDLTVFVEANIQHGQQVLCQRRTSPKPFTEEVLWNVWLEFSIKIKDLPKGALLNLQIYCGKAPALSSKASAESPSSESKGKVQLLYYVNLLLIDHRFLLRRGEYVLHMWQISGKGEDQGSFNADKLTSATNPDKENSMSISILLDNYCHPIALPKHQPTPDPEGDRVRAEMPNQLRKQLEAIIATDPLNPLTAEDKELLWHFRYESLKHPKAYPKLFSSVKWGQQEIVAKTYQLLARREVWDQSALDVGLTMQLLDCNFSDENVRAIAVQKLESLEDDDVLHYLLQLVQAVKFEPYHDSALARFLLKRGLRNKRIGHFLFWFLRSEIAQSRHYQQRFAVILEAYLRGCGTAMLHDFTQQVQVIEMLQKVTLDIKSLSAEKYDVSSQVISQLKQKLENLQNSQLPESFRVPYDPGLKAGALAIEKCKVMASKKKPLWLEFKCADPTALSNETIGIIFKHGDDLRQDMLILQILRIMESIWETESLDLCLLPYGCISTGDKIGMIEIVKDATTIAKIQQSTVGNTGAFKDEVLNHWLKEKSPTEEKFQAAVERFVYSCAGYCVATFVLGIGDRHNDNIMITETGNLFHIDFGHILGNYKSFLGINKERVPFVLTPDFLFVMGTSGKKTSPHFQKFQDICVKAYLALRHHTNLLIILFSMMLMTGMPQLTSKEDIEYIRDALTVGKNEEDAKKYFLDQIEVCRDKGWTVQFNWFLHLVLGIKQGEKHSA
# Source text: as §1, §2, §3
# P110β = P110β (Homo sapiens, UniProt P42338); assay: Fluorescent (HTRF) determination of PI3K enzyme activity, β isoform; type: biochemical
# P110β, sequence (P42338 whole entry, canonical isoform): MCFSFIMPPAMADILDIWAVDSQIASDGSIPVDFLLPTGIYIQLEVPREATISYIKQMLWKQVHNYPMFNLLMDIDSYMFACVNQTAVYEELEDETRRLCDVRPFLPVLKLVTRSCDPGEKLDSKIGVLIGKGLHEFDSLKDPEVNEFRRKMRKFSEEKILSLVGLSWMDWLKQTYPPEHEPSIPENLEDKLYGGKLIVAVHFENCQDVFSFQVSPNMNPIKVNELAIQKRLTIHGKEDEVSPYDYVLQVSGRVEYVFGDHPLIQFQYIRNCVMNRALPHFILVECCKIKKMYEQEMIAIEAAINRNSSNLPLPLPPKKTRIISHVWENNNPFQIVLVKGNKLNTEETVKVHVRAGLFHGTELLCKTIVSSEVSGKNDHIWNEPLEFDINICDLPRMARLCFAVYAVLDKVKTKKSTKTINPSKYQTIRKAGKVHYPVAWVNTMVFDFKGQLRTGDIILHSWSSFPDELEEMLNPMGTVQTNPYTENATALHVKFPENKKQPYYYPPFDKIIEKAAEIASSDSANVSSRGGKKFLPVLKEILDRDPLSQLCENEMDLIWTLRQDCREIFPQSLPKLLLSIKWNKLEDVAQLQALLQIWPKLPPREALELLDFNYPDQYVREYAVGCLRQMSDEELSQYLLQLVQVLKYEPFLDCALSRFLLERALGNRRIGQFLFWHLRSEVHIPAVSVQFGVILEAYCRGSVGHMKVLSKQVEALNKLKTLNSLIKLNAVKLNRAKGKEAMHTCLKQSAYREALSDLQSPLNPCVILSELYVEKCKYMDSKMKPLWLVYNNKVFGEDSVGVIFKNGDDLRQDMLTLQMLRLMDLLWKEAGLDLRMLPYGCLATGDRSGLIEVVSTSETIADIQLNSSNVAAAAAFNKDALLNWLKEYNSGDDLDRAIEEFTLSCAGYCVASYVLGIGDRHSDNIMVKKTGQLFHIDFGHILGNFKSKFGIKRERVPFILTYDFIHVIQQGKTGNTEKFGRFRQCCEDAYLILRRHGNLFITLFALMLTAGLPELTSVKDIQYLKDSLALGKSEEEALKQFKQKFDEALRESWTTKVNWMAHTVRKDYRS
# P110β, sequence (P27986 whole entry partner, canonical isoform): as the sequence (P27986 whole entry partner, canonical isoform) above
# In short: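 Recombinant human PI3K isoforms incubated 10 min at room temperature with inhibitor and 1.38 μM PIP2 (10 mM MgCl2, 5 mM DTT), then 30 min after adding 400 μM ATP stock. PIP3 formation detected by HTRF (665/620 nm); % inhibition versus blank and enzyme controls gives IC50.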
# [1] = read-out: P110 δ/ Pi3K δ IC 50 nM
# [2] = read-out: P110 δ/Pi3K δ IC 50 nM
# P110α, sequence (P42336 whole entry, canonical isoform): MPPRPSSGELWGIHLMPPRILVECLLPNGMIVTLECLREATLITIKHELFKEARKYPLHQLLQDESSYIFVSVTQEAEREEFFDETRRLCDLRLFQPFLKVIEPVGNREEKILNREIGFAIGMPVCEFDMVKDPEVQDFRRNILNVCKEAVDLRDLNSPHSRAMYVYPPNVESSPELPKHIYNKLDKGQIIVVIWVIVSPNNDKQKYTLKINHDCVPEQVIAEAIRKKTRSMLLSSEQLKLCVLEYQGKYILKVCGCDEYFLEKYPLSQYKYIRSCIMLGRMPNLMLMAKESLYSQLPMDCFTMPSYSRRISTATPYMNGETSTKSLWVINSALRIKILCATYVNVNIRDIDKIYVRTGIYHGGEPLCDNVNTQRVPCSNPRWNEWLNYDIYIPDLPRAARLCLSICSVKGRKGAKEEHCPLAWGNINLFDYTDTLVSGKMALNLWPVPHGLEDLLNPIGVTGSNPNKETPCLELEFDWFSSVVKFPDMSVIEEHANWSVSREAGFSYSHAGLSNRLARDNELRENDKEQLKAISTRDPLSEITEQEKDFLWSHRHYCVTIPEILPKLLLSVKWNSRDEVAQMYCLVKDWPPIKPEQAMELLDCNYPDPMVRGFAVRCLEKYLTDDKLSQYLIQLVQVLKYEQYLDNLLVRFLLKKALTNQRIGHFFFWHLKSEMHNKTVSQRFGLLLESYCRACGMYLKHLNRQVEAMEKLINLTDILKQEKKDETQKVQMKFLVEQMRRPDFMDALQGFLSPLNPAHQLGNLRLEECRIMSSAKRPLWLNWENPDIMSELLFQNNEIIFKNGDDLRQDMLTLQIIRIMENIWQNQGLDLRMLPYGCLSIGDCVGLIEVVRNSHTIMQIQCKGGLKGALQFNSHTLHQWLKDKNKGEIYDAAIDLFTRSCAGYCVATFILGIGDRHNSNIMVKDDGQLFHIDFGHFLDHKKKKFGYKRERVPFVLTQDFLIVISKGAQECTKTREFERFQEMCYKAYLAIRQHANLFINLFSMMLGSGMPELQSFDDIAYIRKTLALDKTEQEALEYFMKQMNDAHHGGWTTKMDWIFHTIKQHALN
# P110α, sequence (P27986 whole entry partner, canonical isoform): as the sequence (P27986 whole entry partner, canonical isoform) above
inhibition at 1 µM (P110α) [%],IC50 (P110 δ/Pi3K δ; [1]) [nM],inhibition at 1 µM (P110γ) [%],inhibition at 1 µM (P110β) [%],inhibition at 1 µM (P110 δ/Pi3K δ) [%],IC50 (P110 δ/Pi3K δ; [2]) [nM],melting point [°C],inhibition (P110 δ/Pi3K δ) [%],SMILES
< 25,< 250,25 to 50,< 25,,,,,"Cc1n[nH]c2cc(-c3nn([C@H](C)c4oc5ccccc5c(=O)c4-c4cccc(F)c4)c4ncnc(N)c34)ccc12 (single isomer, unassigned) [Example 128, (+)-2-(1-(4-amino-3-(3-methyl-1H-indazol-6-yl)-1H-pyrazolo[3,4-d]pyrimidin-1-yl)ethyl)-3-(3-fluorophenyl)-4H-chromen-4-one]"
< 25,,< 25,< 25,50 to 100,< 250,,,"CC(c1oc2ccccc2c(=O)c1-c1cccc(F)c1)n1cnc2c(N)ncnc21 (stereo not shown) [Example 32, 2-(1-(6-Amino-9H-purin-9-yl)ethyl)-3-(3-fluorophenyl)-4H-chromen-4-one]"
< 25,,< 25,25 to 50,50 to 100,< 250,212 to 216,,"CC(c1oc2ccccc2c(=O)c1-c1ccccc1)n1nc(-c2cccc(O)c2)c2c(N)ncnc21 (stereo not shown) [Example 42, 2-(1-(4-Amino-3-(3-hydroxyphenyl)-1H-pyrazolo[3,4-d]pyrimidin-1-yl)ethyl)-3-phenyl-4H-chromen-4-one]"
< 25,,25 to 50,25 to 50,50 to 100,< 250,135 to 138,,"C[C@H](Nc1ncnc2[nH]cnc12)c1oc2ccccc2c(=O)c1-c1cccc(F)c1 [Example 47, (S)-2-(1-(9H-purin-6-ylamino)ethyl)-3-(3-fluorophenyl)-4H-chromen-4-one]"
< 25,,< 25,50 to 100,,,,,"COc1cccc(-c2nn(C(C)c3oc4ccccc4c(=O)c3-c3cccc(F)c3)c3ncnc(N)c23)c1 (stereo not shown) [Example 51, 2-(1-(4-amino-3-(3-methoxyphenyl)-1H-pyrazolo[3,4-d]pyrimidin-1-yl)ethyl)-3-(3-fluorophenyl)-4H-chromen-4-one]"
< 25,,< 25,50 to 100,50 to 100,< 250,154 to 158,,"Nc1ncnc2c1c(-c1cccc(O)c1)nn2Cc1oc2ccccc2c(=O)c1-c1ccccc1 [Example 53, 2-((4-Amino-3-(3-hydroxyphenyl)-1H-pyrazolo[3,4-d]pyrimidin-1-yl)methyl)-3-phenyl-4H-chromen-4-one]"
< 25,,50 to 100,< 25,50 to 100,< 250,280 to 283,,"Nc1ncnc2c1c(-c1cccc(O)c1)nn2Cc1oc2ccccc2c(=O)c1-c1cccc(F)c1 [Example 55, 2-((4-amino-3-(3-hydroxyphenyl)-1H-pyrazolo[3,4-d]pyrimidin-1-yl)methyl)-3-(3-fluorophenyl)-4H-chromen-4-one]"
< 25,,< 25,25 to 50,50 to 100,< 250,235 to 237,,"Nc1ncnc2c1c(-c1cc(O)cc(F)c1)nn2Cc1oc2ccccc2c(=O)c1-c1cccc(F)c1 [Example 68, 2-((4-amino-3-(3-fluoro-5-hydroxyphenyl)-1H-pyrazolo[3,4-d]pyrimidin-1-yl)methyl)-3-(3-fluorophenyl)-4H-chromen-4-one]"
< 25,< 250,25 to 50,25 to 50,,,214 to 217,50 to 100,"Cc1n[nH]c2cc(-c3nn(C(C)c4oc5ccccc5c(=O)c4-c4cccc(F)c4)c4ncnc(N)c34)ccc12 (stereo not shown) [Example 79, 2-(1-(4-amino-3-(3-methyl-1H-indazol-6-yl)-1H-pyrazolo[3,4-d]pyrimidin-1-yl)ethyl)-3-(3-fluorophenyl)-4H-chromen-4-one]"
< 25,,25 to 50,< 25,,,238 to 241,50 to 100,"CC(c1oc2ccccc2c(=O)c1-c1cccc(F)c1)n1nc(-c2ccc3c(c2)CCO3)c2c(N)ncnc21 (stereo not shown) [Example 109, 2-(1-(4-amino-3-(2,3-dihydrobenzofuran-5-yl)-1H-pyrazolo[3,4-d]pyrimidin-1-yl)ethyl)-3-(3-fluorophenyl)-4H-chromen-4-one]"
< 25,,50 to 100,< 25,,,269 to 272,50 to 100,"Cc1c[nH]c2cc(-c3nn(C(C)c4oc5ccccc5c(=O)c4-c4cccc(F)c4)c4ncnc(N)c34)ccc12 (stereo not shown) [Example 111, 2-(1-(4-amino-3-(3-methyl-1H-indol-6-yl)-1H-pyrazolo[3,4-d]pyrimidin-1-yl)ethyl)-3-(3-fluorophenyl)-4H-chromen-4-one]"
,,50 to 100,25 to 50,,,198 to 200,50 to 100,"CC(C)Oc1ccc(-c2nn(C(C)c3oc4ccccc4c(=O)c3-c3cccc(F)c3)c3ncnc(N)c23)cc1Cl (stereo not shown) [Example 141, 2-(1-(4-amino-3-(3-chloro-4-isopropoxyphenyl)-1H-pyrazolo[3,4-d]pyrimidin-1-yl)ethyl)-3-(3-fluorophenyl)-4H-chromen-4-one]"
,,< 25,25 to 50,,,218 to 220,< 50,"CC(c1oc2ccccc2c(=O)c1-c1cccc(F)c1)n1nc(-c2cccc(N(C)C)c2)c2c(N)ncnc21 (stereo not shown) [Example 142, 2-(1-(4-amino-3-(3-(dimethylamino)phenyl)-1H-pyrazolo[3,4-d]pyrimidin-1-yl)ethyl)-3-(3-fluorophenyl)-4H-chromen-4-one]"
,,< 25,25 to 50,,,216 to 218,< 50,"CCOc1ccc(-c2nn(C(C)c3oc4ccccc4c(=O)c3-c3cccc(F)c3)c3ncnc(N)c23)cc1F (stereo not shown) [Example 143, 2-(1-(4-amino-3-(4-ethoxy-3-fluorophenyl)-1H-pyrazolo[3,4-d]pyrimidin-1-yl)ethyl)-3-(3-fluorophenyl)-4H-chromen-4-one]"
